{
  "source": "patent US9363996B2",
  "about": "“Compositions and method for blocking ethylene response in field crops using 3-(cy-clopropyl-l-enyl)-propanoic salt” (Yissum Research Development Company of the Hebrew …, priority 2009, dated 2016)",
  "key": {"[1]": {"system": "young cotton seedlings", "test": "Ethylene-induced leaf epinasty of young cotton seedlings", "assay_type": "in vivo, cotton (Gossyium hirsutum barbadense L.)", "description": "(1) Abscission-This is a very sensitive model system for studying the effects of plant hormones. Ethylene induces the process of abscission, while auxin delays it. In the laboratory the experimental system is based on plant organ explants, which include the abscission zone. Abscission is induced by exposure to ethylene and at the termination of the experiment the number of abscised organs, usually either leaf blades or petioles are counted and the fraction of abscission is calculated. In the case of fruit, the decrease in fruit retention force is analyzed. […] The plants or explants are then further exposed for 24 h to ethylene gas (5 to 20 μL L^-1). The plants or explants are then ventilated and incubated for the required time under controlled conditions. At the end of the experiment the percentage of abscission is determined. […] Plant material (whole plants, excised leaves or leaf discs) are pretreated. […] The plants or explants are then ventilated and incubated for the required time under controlled conditions. At the end of the experiment a dimethylsulfoxide (DMSO) extract of the plant tissue is prepared, and the chlorophyll content of the extract is determined by spectrophotometric analysis. […] The extent of ethylene-induced epinasty of leaves is determined by measuring the change of the angle between the petiole and the stem shoot or blade. […]"}, "[2]": {"system": "young cotton seedlings", "test": "Ethylene-induced chlorophyll degradation in young cotton seedlings", "assay_type": "in vivo, cotton (Gossyium hirsutum barbadense L.)", "details": "for increase of chlorophyll content compared with the untreated control: ethylene 10 μL L^−1", "description": "(1) Abscission-This is a very sensitive model system for studying the effects of plant hormones. Ethylene induces the process of abscission, while auxin delays it. In the laboratory the experimental system is based on plant organ explants, which include the abscission zone. Abscission is induced by exposure to ethylene and at the termination of the experiment the number of abscised organs, usually either leaf blades or petioles are counted and the fraction of abscission is calculated. In the case of fruit, the decrease in fruit retention force is analyzed. […] The plants or explants are then further exposed for 24 h to ethylene gas (5 to 20 μL L^-1). The plants or explants are then ventilated and incubated for the required time under controlled conditions. At the end of the experiment the percentage of abscission is determined. […] Plant material (whole plants, excised leaves or leaf discs) are pretreated. […] The plants or explants are then ventilated and incubated for the required time under controlled conditions. At the end of the experiment a dimethylsulfoxide (DMSO) extract of the plant tissue is prepared, and the chlorophyll content of the extract is determined by spectrophotometric analysis. The chlorophyll content is reported either on a fresh, dry weight basis, or on a surface area basis. (3) Epinasty-This is also one of the classical methods for studying ethylene effects in plants. The extent of ethylene-induced epinasty of leaves is determined by measuring the change of the angle between the petiole and the stem shoot or blade. After exposure of the intact plant to ethylene, the upright grown leaves bend downward. […] The plants are then ventilated and incubated for the required time under controlled conditions. The epinastic effect is expressed by measuring the degree values of the downward curvature between the blade and petiole (cotton, FIGS. 1-3) or between the blade and the stem (wheat, FIGS. 31 and 32). […] In this project the intact plants were grown in the greenhouse up to the spike […] stage I and II. […] Young Cotton Seedlings […] The content of chlorophyll in the leaf blades of the treated plants remained the same as in the untreated control (FIGS. 5 and 6)."}},
  "data": [
    {"smiles": "O=C([O-])CCC1=CC1.[Na+]", "note": "[WS-CPD, 3-cyclopropyl-1-enyl-propanoic sodium salt]", "values": [
      {"measurement": "ethylene-induced leaf epinasty", "setting": "[1]; WS-CPD 10 and 30 μg mL^−1, ethylene 10 μL L^−1", "value": "completely reversed"},
      {"measurement": "ethylene-induced epinasty", "setting": "[1]; WS-CPD spray 10 to 300 μg mL^−1, 24 h later ethylene 10 μL L^−1 for 24 h, three-week-old seedlings", "value": "completely antagonized"},
      {"measurement": "ethylene-induced chlorophyll degradation", "setting": "[2]; WS-CPD 10 μg mL^−1 pretreatment, ethylene 10 μL L^−1 24 h", "value": "completely antagonized"},
      {"measurement": "increase of chlorophyll content compared with the untreated control", "setting": "[2]; WS-CPD 30 μg L^−1 (so in the source)", "value": 20, "unit": "%"},
      {"measurement": "increase of chlorophyll content compared with the untreated control", "setting": "[2]; WS-CPD 100 μg L^−1 (so in the source)", "value": 28, "unit": "%"},
      {"measurement": "ethylene-induced chlorophyll degradation", "setting": "[2]; higher concentrations of WS-CPD (up to 300 μg mL^−1)", "value": "less effective"}
    ]}
  ]
}
